{"source": "ChEMBL document CHEMBL1201862", "about": "“PubChem BioAssay data set” (2004)", "key": {"[1]": {"target": "T1, High affinity choline transporter 1 (Homo sapiens, UniProt Q9GZV3)", "T1 sequence (Q9GZV3 whole entry)": "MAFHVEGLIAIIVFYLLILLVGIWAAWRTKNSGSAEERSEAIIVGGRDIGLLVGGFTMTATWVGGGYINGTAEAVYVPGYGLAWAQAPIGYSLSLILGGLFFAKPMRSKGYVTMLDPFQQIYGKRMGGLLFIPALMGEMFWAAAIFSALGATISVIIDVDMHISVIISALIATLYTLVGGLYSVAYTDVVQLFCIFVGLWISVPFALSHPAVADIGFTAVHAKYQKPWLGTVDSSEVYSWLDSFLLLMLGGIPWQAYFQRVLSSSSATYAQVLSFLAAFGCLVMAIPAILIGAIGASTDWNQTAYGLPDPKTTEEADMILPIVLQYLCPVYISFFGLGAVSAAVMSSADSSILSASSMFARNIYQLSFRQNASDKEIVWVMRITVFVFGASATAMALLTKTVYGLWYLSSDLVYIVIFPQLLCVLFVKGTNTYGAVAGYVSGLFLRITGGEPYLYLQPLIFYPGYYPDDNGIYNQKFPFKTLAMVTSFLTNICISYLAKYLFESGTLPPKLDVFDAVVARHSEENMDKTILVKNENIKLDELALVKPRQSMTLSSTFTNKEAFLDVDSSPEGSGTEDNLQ", "experiment": "human choline transporter blockers, potency – cell-based, 5-point CRC, membrane potential dye, dose response (AID 504840)", "assay_type": "functional"}, "[2]": {"target": "T1, High affinity choline transporter 1", "experiment": "human choline transporter blockers, potency – cell-based, 10-point CRC, membrane potential dye, dose response (AID 588401);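 further: membrane potential dye fluorescence of choline-evoked depolarization via CHT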", "assay_type": "functional"}, "[3]": {"target": "T2, Nuclear receptor subfamily 0 group B member 1 (Homo sapiens, UniProt P51843)", "T2 sequence (P51843 whole entry)": "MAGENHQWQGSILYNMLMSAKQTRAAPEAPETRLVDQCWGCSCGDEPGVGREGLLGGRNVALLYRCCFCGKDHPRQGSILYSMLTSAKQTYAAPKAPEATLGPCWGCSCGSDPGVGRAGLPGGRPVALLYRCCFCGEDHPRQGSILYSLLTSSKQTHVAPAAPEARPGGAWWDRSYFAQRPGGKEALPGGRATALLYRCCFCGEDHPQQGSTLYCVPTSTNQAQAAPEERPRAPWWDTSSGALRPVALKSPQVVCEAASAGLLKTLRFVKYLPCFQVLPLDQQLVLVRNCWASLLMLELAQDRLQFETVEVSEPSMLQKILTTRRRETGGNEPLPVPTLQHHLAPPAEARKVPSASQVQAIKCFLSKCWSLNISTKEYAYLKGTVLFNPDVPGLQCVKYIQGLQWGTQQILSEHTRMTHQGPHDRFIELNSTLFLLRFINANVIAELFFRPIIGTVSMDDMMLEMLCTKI", "assay_type": "functional, cell-based"}, "cells": {"experiment": "cells", "assay_type": "functional, cell-based"}}, "note": "Activity calls are given as the source filed them."}
{"smiles": "O=C(Nc1c(C(=O)N2CCC(N3CCCCC3)CC2)oc2ccccc12)c1ccc(F)cc1", "values": [{"measurement": "IC50", "setting": "[1]", "value": "0.91 µM (active)"}, {"measurement": "IC50", "setting": "[2]", "value": "1.63 µM (active)"}, {"measurement": "IC50", "setting": "[3]", "value": "> 67.5 µM (inactive)"}, {"measurement": "IC50", "setting": "cells", "value": "> 67.5 µM (inactive)"}]}
